Where “and” joins values, the source holds several entries; their conditions need not be identical. Identical values can stand only once.
Key:
L1210 [1] = assay: In vivo antitumor activity against L1210 leukemia in 5 mice measured as Increased life span at 45 mg/kg.; format: functional; conditions: Mus musculus
L1210 [2] = assay: In vivo antitumor activity against L1210 leukemia in 5 mice measured as Increased life span at 90 mg/kg.; format: functional; conditions: Mus musculus
L1210 [3] = assay: In vivo antitumor activity against L1210 leukemia in 5 mice measured as median survival range at 90 mg/kg; Value ranges from(15-24); format: functional, Mus musculus
L1210 [4] = assay: In vivo antitumor activity against L1210 leukemia in 18 mice measured as T/C values(days); T/C = 18/11; format: functional, Mus musculus
L1210 [5] = assay: In vivo antitumor activity against L1210 leukemia in 5 mice measured as median survival range at 45 mg/kg; Value ranges from(14-19); format: functional, Mus musculus
Mus musculus [6] = assay: Average weight of the mouse after treating with 90 mg/kg dose for 7 days.; format: functional
Mus musculus [7] = assay: Average weight of the mouse after treating with 45 mg/kg dose for 7 days.; format: functional
L1210 [8] = assay: In vivo antitumor activity against L1210 leukemia in 20 mice measured as T/C values(days); T/C = 20/11; format: functional, Mus musculus
Mus musculus [9] = assay: Average weight of the mouse after treating with 45 mg/kg dose for 1 day.; format: functional
Mus musculus [10] = assay: Average weight of the mouse after treating with 90 mg/kg dose for 1 day.; format: functional
L1210 [11] = assay: In vivo antitumor activity against L1210 leukemia in 5 mice measured as median survival range at 15 mg/kg; Value ranges from (14-18); format: functional, Mus musculus
Mus musculus [12] = assay: Average weight change in mouse after treating with 7.5 mg/kg dose for 7 days.; format: functional
Mus musculus [13] = assay: In vivo antitumor activity against L1210 leukemia in 5 mice measured as weight change in 7 days(% weight); format: functional
L1210 [14] = assay: In vivo anti tumor activity against L1210 leukemia in 5 mice measured as Increased life span at 15 mg/kg; format: functional; conditions: Mus musculus
L1210 [15] = assay: In vivo antitumor activity against L1210 leukemia in 5 mice measured as median survival range at 7.5 mg/kg; Value ranges from (10-14); format: functional, Mus musculus
L1210 [16] = assay: In vivo anti tumor activity against L1210 leukemia in 5 mice measured as Increased life span at 7.5 mg/kg; format: functional; conditions: Mus musculus
Mus musculus [17] = assay: Average weight of the mouse after treating with 15 mg/kg dose for 1 day; format: functional
Mus musculus [18] = assay: Average weight of the mouse after treating with 7.5 mg/kg dose for 1 day; format: functional
Mus musculus [19] = assay: Average weight of the mouse after treating with 40 mg/kg dose for 1 day.; format: functional; design: unit not given here
L1210 [20] = assay: In vivo antitumor activity against L1210 leukemia in 5 mice measured as median survival range at 10 mg/kg; Value ranges from (13-18).; format: functional, Mus musculus
L1210 [21] = assay: In vivo antitumor activity against L1210 leukemia in 5 mice measured as Increased life span at 40 mg/kg.; format: functional; conditions: Mus musculus
L1210 [22] = assay: In vivo antitumor activity against L1210 leukemia in 5 mice measured as T/C values; T/C = 23/9; format: functional, Mus musculus
L1210 [23] = assay: In vivo antitumor activity against L1210 leukemia in 5 mice measured as median survival range at 40 mg/kg; Value ranges from(15-23); format: functional, Mus musculus
Mus musculus [24] = assay: Average weight of the mouse after treating with 20 mg/kg dose for 7 days.; format: functional
Mus musculus [25] = assay: Average weight of the mouse after treating with 20 mg/kg dose for 1 day.; format: functional; design: unit not given here
Mus musculus [26] = assay: Average weight of the mouse after treating with 10 mg/kg dose for 7 day.; format: functional
L1210 [27] = assay: In vivo antitumor activity against L1210 leukemia in 5 mice measured as Increased life span at 20 mg/kg.; format: functional; conditions: Mus musculus
L1210 [28] = assay: In vivo antitumor activity against L1210 leukemia in 5 mice measured as median survival range at 20 mg/kg; Value ranges from (14-23); format: functional, Mus musculus
Mus musculus [29] = assay: Average weight of the mouse after treating with 10 mg/kg dose for 1 day.; format: functional; design: unit not given here
L1210 [30] = assay: In vivo antitumor activity against L1210 leukemia in 5 mice measured as Increased life span at 10 mg/kg.; format: functional; conditions: Mus musculus
Mus musculus [31] = assay: Average weight of the mouse after treating with 40 mg/kg dose for 7 day.; format: functional
L1210 [32] = assay: In vivo antitumor activity against L1210 leukemia in 17 mice measured as T/C values; T/C = 17/9; format: functional, Mus musculus
L1210 [33] = assay: In vivo antitumor activity against L1210 leukemia in 5 mice measured as median survival range at 10 mg/kg; Value ranges from (10-15); format: functional, Mus musculus
L1210 [34] = assay: In vivo antitumor activity against L1210 leukemia in 14 mice measured as T/C values; T/C = 14/9; format: functional, Mus musculus
Mus musculus [35] = assay: Average weight change in mouse after treating with 20 mg/kg dose for 7 days.; format: functional; design: unit not given beside the values; conditions: 20 mg/kg
L1210 [36] = assay: In vivo antitumor activity against L1210 leukemia in 5 mice measured as median survival range at 20 mg/kg; Value ranges from (14-18); format: functional, Mus musculus
L1210 [37] = assay: In vivo antitumor activity against L1210 leukemia in 12 mice measured as T/C values(days); T/C = 12/9; format: functional, Mus musculus
Mus musculus [38] = assay: Average weight change in mouse after treating with 15 mg/kg dose for 7 days.; format: functional
L1210 [39] = assay: In vivo antitumor activity against L1210 leukemia in 5 mice measured as Increased life span at 30 mg/kg.; format: functional; conditions: Mus musculus
L1210 [40] = assay: In vivo antitumor activity against L1210 leukemia in 5 mice measured as median survival range at 15 mg/kg; Value ranges from (12-14).; format: functional, Mus musculus
Mus musculus [41] = assay: Average weight of the mouse after treating with 15 mg/kg dose for 1 day.; format: functional
Mus musculus [42] = assay: Average weight of the mouse after treating with 30 mg/kg dose for 7 day.; format: functional
L1210 [43] = assay: In vivo antitumor activity against L1210 leukemia in 5 mice measured as median survival range at 30 mg/kg; Value ranges from(17-22).; format: functional, Mus musculus
Mus musculus [44] = assay: Average weight of the mouse after treating with 30 mg/kg dose for 1 day.; format: functional
L1210 [45] = assay: In vivo antitumor activity against L1210 leukemia in 18 mice measured as T/C values; T/C = 18/9; format: functional, Mus musculus
L1210 [46] = assay: In vivo antitumor activity against L1210 leukemia in 12 mice measured as T/C values; T/C = 12/9; format: functional, Mus musculus
L1210 [47] = assay: In vivo anti tumor activity against L1210 leukemia in 5 mice measured as Increased life span at 15 mg/kg.; format: functional; conditions: Mus musculus

Compound: CCCCOC(=O)CCC(NC(=O)c1cc(Cl)c(N(C)Cc2cnc3nc(N)nc(N)c3n2)c(Cl)c1)C(=O)OCCCC (stereo not given)
- ILS at 45 mg/kg (L1210 [1]): 64%
- ILS at 90 mg/kg (L1210 [2]): 82%
- Range (L1210 [3]): 24
- T/C (L1210 [4]): 11
- Range (L1210 [5]): 19
- Weight change (Mus musculus [6]): 3.8
- Weight change (Mus musculus [7]): 1
- T/C (L1210 [8]): 11
- Average weight (Mus musculus [9]): 25
- Average weight (Mus musculus [10]): 27.8

Compound: CCCCCCCCOC(=O)CCC(NC(=O)c1ccc(N(C)Cc2cnc3nc(N)nc(N)c3n2)cc1)C(=O)OCCCCCCCC (stereo not given)
- Range (L1210 [11]): 18
- Weight change (Mus musculus [12]): 0.4
- Weight change (Mus musculus [13]): 0.8
- ILS at 15 mg/kg (L1210 [14]): 66%
- Range (L1210 [15]): 14
- ILS at 7.5 mg/kg (L1210 [16]): 44%
- Average weight (Mus musculus [17]): 25.2
- Average weight (Mus musculus [18]): 26.4

Compound: Cc1ccc(C)c(COC(=O)CCC(NC(=O)c2ccc(N(C)Cc3cnc4nc(N)nc(N)c4n3)cc2)C(=O)OCc2cc(C)ccc2C)c1 (stereo not given)
- Average weight (Mus musculus [19]): 20.7
- Range (L1210 [20]): 18
- ILS at 40 mg/kg (L1210 [21]): 155%
- T/C (L1210 [22]): 9
- Range (L1210 [23]): 23
- Weight change (Mus musculus [24]): 0.7
- Average weight (Mus musculus [25]): 22
- Weight change (Mus musculus [26]): 1.6
- ILS at 20 mg/kg (L1210 [27]): 111%
- Range (L1210 [28]): 23
- Average weight (Mus musculus [29]): 23
- ILS at 10 mg/kg (L1210 [30]): 88%
- Weight change (Mus musculus [31]): 0.7
- T/C (L1210 [32]): 9

Compound: CCCCCOC(=O)CCC(NC(=O)c1ccc(N(C)Cc2cnc3nc(N)nc(N)c3n2)cc1)C(=O)OCCCCC (stereo not given)
- Range (L1210 [33]): 15
- T/C (L1210 [34]): 14
- Weight change (Mus musculus [35]): 0.6 and 0.4
- Range (L1210 [36]): 18
- Average weight (Mus musculus [25]; 20 mg/kg): 21.5 and 20.8
- ILS at 20 mg/kg (L1210 [27]): 55%
- T/C (L1210 [37]): 12
- ILS at 10 mg/kg (L1210 [30]): 33%

Compound: CN(Cc1cnc2nc(N)nc(N)c2n1)c1ccc(C(=O)NC(CCC(=O)OCc2ccccc2)C(=O)OCc2ccccc2)cc1 (stereo not given)
- Weight change (Mus musculus [38]): 0.4
- ILS at 30 mg/kg (L1210 [39]): 100%
- Range (L1210 [40]): 14
- Average weight (Mus musculus [41]): 25.8
- Weight change (Mus musculus [42]): 1.6
- Range (L1210 [43]): 22
- Average weight (Mus musculus [44]): 25.6
- T/C (L1210 [45]): 9
- T/C (L1210 [46]): 9
- ILS at 15 mg/kg (L1210 [47]): 33%

From ChEMBL document CHEMBL1122370 (J Med Chem, 1983)
